Measurements as given in patent US20260060250A1, “HERBICIDAL PYRIDONE DERIVATIVES” (SYNGENTA CROP PROTECTION AG, priority 2022, published 2026).

Key:
Type in all cases: in vivo
Conditions in all cases: 1000 g/ha, evaluated after 13 days
Zea mays (ZEAMX) [1] = assay: Pre-emergence Test (Table B1); design: key: 5=81-100%; 4=61-80%; 3=41-60%; 2=21-40%; 1=0-20%; 0=inactive
[2] = test system: Amaranthus palmeri (AMAPA); assay: Pre-emergence Test (Table B1)
Zea mays (ZEAMX) [3] = assay: Post-emergence Test (Table B2); design: key: 5=81-100%; 4=61-80%; 3=41-60%; 2=21-40%; 1=0-20%; 0=inactive
Experimental: (§1) Seeds of a variety of test species are sown in standard soil in pots (Amaranthus palmeri (AMAPA), Setaria faberi (SETFA), Echinochloa crus-galli (ECHCG), (Amaranthus retroflexus (AMARE), Zea mays (ZEAMX), Ipomoea hederacea (IPOHE)). After 8 days cultivation under controlled conditions in a glasshouse (at 24° C./16° C., day/night; 14 hours light; 65% humidity), the plants are sprayed with an aqueous spray solution derived from the formulation of the technical active ingredient in acetone/water (50:50) solution containing 0.5% Tween 20 (polyoxyethelyene sorbitan monolaurate, CAS RN 9005-64-5). Compounds are applied at 1000 g/ha unless otherwise stated. The test plants are then grown in a glasshouse under controlled conditions in a glasshouse (at 24° C./16° C., day/night; 14 hours light; 65% humidity) and watered twice daily. After 13 days the test is evaluated for the percentage damage caused to the plant.

[4] = test system: Ipomoea hederacea (IPOHE); assay: Post-emergence Test (Table B2); design: key: 5=81-100%; 4=61-80%; 3=41-60%; 2=21-40%; 1=0-20%; 0=inactive
Experimental: as §1

[5] = test system: Echinochloa crus-galli (ECHCG); assay: Post-emergence Test (Table B2); design: key: 5=81-100%; 4=61-80%; 3=41-60%; 2=21-40%; 1=0-20%; 0=inactive
Experimental: as §1

Setaria faberi (SETFA) [6] = assay: Pre-emergence Test (Table B1); design: key: 5=81-100%; 4=61-80%; 3=41-60%; 2=21-40%; 1=0-20%; 0=inactive
[7] = test system: Amaranthus palmeri (AMAPA); assay: Post-emergence Test (Table B2)
Experimental: as §1

Setaria faberi (SETFA) [8] = assay: Post-emergence Test (Table B2)
Experimental: as §1

[9] = test system: Amaranthus retroflexus (AMARE); assay: Post-emergence Test (Table B2)
Experimental: as §1

[10] = test system: Echinochloa crus-galli (ECHCG); assay: Pre-emergence Test (Table B1); design: key: 5=81-100%; 4=61-80%; 3=41-60%; 2=21-40%; 1=0-20%; 0=inactive
[11] = test system: Amaranthus retroflexus (AMARE); assay: Pre-emergence Test (Table B1)
[12] = test system: Ipomoea hederacea (IPOHE); assay: Pre-emergence Test (Table B1); design: key: 5=81-100%; 4=61-80%; 3=41-60%; 2=21-40%; 1=0-20%; 0=inactive

Structure (SMILES)	percentage damage caused to the plant, ZEAMX (Zea mays (ZEAMX) [1])	percentage damage caused to the plant, AMAPA [2]	percentage damage caused to the plant, ZEAMX (Zea mays (ZEAMX) [3])	percentage damage caused to the plant, IPOHE [4]	percentage damage caused to the plant, ECHCG [5]	percentage damage caused to the plant, SETFA (Setaria faberi (SETFA) [6])	percentage damage caused to the plant, AMAPA [7]	percentage damage caused to the plant, SETFA (Setaria faberi (SETFA) [8])	percentage damage caused to the plant, AMARE [9]	percentage damage caused to the plant, ECHCG [10]	percentage damage caused to the plant, AMARE [11]	percentage damage caused to the plant, IPOHE [12]
CCn1c(C)c(-c2cc(C(=O)OC(C)CF)ccc2F)c(=O)c(C(=O)O)c1-c1ccc(Cl)c(Cl)c1 (stereo not drawn) [Compound 9, 2-(3,4-dichlorophenyl)-1-ethyl-5-[2-fluoro-5-(2-fluoro-1-methyl-ethoxy)carbonyl-phenyl]-6-methyl-4-oxo-pyridine-3-carboxylic acid]	1 (1=0-20%)	5 (5=81-100%)	2 (2=21-40%)	1 (1=0-20%)	2 (2=21-40%)	2 (2=21-40%)	4 (4=61-80%)	3 (3=41-60%)	5 (5=81-100%)	1 (1=0-20%)	5 (5=81-100%)	0
CCn1c(C)c(-c2cc(C(=O)OC(C)C(C)=O)ccc2F)c(=O)c(C(=O)O)c1-c1ccc(Cl)c(Cl)c1 (stereo not drawn) [Compound 10, 2-(3,4-dichlorophenyl)-1-ethyl-5-[2-fluoro-5-(1-methyl-2-oxo-propoxy)carbonyl-phenyl]-6-methyl-4-oxo-pyridine-3-carboxylic acid]	0	5 (5=81-100%)	3 (3=41-60%)	1 (1=0-20%)	2 (2=21-40%)	0	5 (5=81-100%)	4 (4=61-80%)	5 (5=81-100%)	0	5 (5=81-100%)	0
CCC#CC(C)OC(=O)c1ccc(F)c(-c2c(C)n(CC)c(-c3ccc(Cl)c(Cl)c3)c(C(=O)O)c2=O)c1 (stereo not drawn) [Compound 11, 2-(3,4-dichlorophenyl)-1-ethyl-5-[2-fluoro-5-(1-methylpent-2-ynoxycarbonyl)phenyl]-6-methyl-4-oxo-pyridine-3-carboxylic acid]	0	5 (5=81-100%)	2 (2=21-40%)	3 (3=41-60%)	4 (4=61-80%)	0	5 (5=81-100%)	4 (4=61-80%)	5 (5=81-100%)	0	5 (5=81-100%)	0
C#CC(C)OC(=O)c1ccc(F)c(-c2c(C)n(CC)c(-c3ccc(Cl)c(Cl)c3)c(C(=O)O)c2=O)c1 (stereo not drawn) [Compound 12, 2-(3,4-dichlorophenyl)-1-ethyl-5-[2-fluoro-5-(1-methylprop-2-ynoxycarbonyl)phenyl]-6-methyl-4-oxo-pyridine-3-carboxylic acid]	1 (1=0-20%)	4 (4=61-80%)	3 (3=41-60%)	2 (2=21-40%)	4 (4=61-80%)	4 (4=61-80%)	5 (5=81-100%)	5 (5=81-100%)	5 (5=81-100%)	3 (3=41-60%)	5 (5=81-100%)	1 (1=0-20%)
C=CCC(C)OC(=O)c1ccc(F)c(-c2c(C)n(CC)c(-c3ccc(Cl)c(Cl)c3)c(C(=O)O)c2=O)c1 (stereo not drawn) [Compound 13, 2-(3,4-dichlorophenyl)-1-ethyl-5-[2-fluoro-5-(1-methylbut-3-enoxycarbonyl)phenyl]-6-methyl-4-oxo-pyridine-3-carboxylic acid]	0	4 (4=61-80%)	2 (2=21-40%)	2 (2=21-40%)	1 (1=0-20%)	2 (2=21-40%)	4 (4=61-80%)	2 (2=21-40%)	4 (4=61-80%)	1 (1=0-20%)	4 (4=61-80%)	0
CCOCC(C)OC(=O)c1ccc(F)c(-c2c(C)n(CC)c(-c3ccc(Cl)c(Cl)c3)c(C(=O)O)c2=O)c1 (stereo not drawn) [Compound 14, 2-(3,4-dichlorophenyl)-5-[5-(2-ethoxy-1-methyl-ethoxy)carbonyl-2-fluoro-phenyl]-1-ethyl-6-methyl-4-oxo-pyridine-3-carboxylic acid]	0	5 (5=81-100%)	1 (1=0-20%)	0	3 (3=41-60%)	3 (3=41-60%)	5 (5=81-100%)	3 (3=41-60%)	5 (5=81-100%)	0	5 (5=81-100%)	0
CC#CC(C)OC(=O)c1ccc(F)c(-c2c(C)n(CC)c(-c3ccc(Cl)c(Cl)c3)c(C(=O)O)c2=O)c1 (stereo not drawn) [Compound 15, 2-(3,4-dichlorophenyl)-1-ethyl-5-[2-fluoro-5-(1-methylbut-2-ynoxycarbonyl)phenyl]-6-methyl-4-oxo-pyridine-3-carboxylic acid]	0	5 (5=81-100%)	4 (4=61-80%)	2 (2=21-40%)	5 (5=81-100%)	0	5 (5=81-100%)	5 (5=81-100%)	5 (5=81-100%)	0	5 (5=81-100%)	0
C#CC(C)OC(=O)c1cc(-c2c(C)n(CC)c(-c3ccc(Cl)c(Cl)c3)c(C(=O)O)c2=O)c(F)cc1Cl (stereo not drawn) [Compound 20, 5-[4-chloro-2-fluoro-5-(1-methylprop-2-ynoxycarbonyl)phenyl]-2-(3,4-dichlorophenyl)-1-ethyl-6-methyl-4-oxo-pyridine-3-carboxylic acid]	0	5 (5=81-100%)	4 (4=61-80%)	4 (4=61-80%)	5 (5=81-100%)	3 (3=41-60%)	5 (5=81-100%)	5 (5=81-100%)	5 (5=81-100%)	3 (3=41-60%)	5 (5=81-100%)	0
